Test results reported in patent publication US9737514B2, “Methods and compositions for the treatment of proliferative vascular disorders” (Children's Medical Center Corporation, priority 2011, dated 2017).

What was measured:
[1] = test system: HemSCs and cbEPCs in Matrigel; experiment: Two cell model of IH (HemSCs and cbEPCs in Matrigel), systemic drug; format: in vivo, nude mice; conditions: daily intra-peritoneal injection; for vascularization of Matrigel implants / formation of blood vessels (MVD): compared with vehicle
Description: (§1) Next, the effect of systemic Rapamycin was tested in a two cell model of IH described previously (Greenberger et al., 2010). HemSCs and cbEPCs were mixed with Matrigel and injected subcutaneously in nude mice. This two-cell model has advantages over injecting HemSC alone: first it is more robust and thus more sensitive for detecting dose-response activity. Second, it allows one to test separately the effect of rapamycin on the HemSC versus cbEPCs, which are primary ECs isolated from cord blood that serve as prototypic young ECs. Rapamycin was administered daily by intra-peritoneal injection.
To test this concept, mice were given i.p. injections of low dose of dexamethasone (0.25 mg/kg), low dose of Rapamycin (0.25 mg/kg) or the combination of both.
(§2) Nude/Nude mice were purchased from Massachusetts General Hospital animal facility. Procedures were approved by the Animal Care and Use Committees of the Children's Hospital, Boston. Anesthesia was induced with 4% isofluorane and maintenance in 1-3% oxygen. Mice were anesthetized once for up to 5 min. The one cell and two cell models of IH were performed as reported (Greenberger et al., 2010; Khan et al., 2008) and microvessel density (MVD) was assessed by counting red blood cell-filled lumens (Melero-Martin et al., 2007). Values reported for each experimental condition correspond to the average MVD value±standard error of the mean (SEM) obtained from all the individual animals.
Rapamycin, Everolimus and Temsirolimus were purchased from LC Laboratories. Drugs were dissolved in DMSO followed by solvent solution (5% polyethylene glycol, 0.2% carboxymethylcellulose and 0.25% Tween-80 in H2O). Aliquots were kept in −20° C. Mice were given daily intra-peritoneal (i.p.) injections containing 200 μl of drug or the vehicle alone.

HemSCs [2] = conditions: cited from earlier work
HemSC = experiment: Calcium influx assay by fluorescence microscopy; format: cell-based, human
Description: FIG. 10B depicts graphs of the effect of nifedipine on spontaneous Ca^2+ oscillations in HemSC treated with Rapamycin or DMSO for 6 days. Each line indicates the whole-cell Ca^2+ changes in an individual cell.
To test for functional features of SMCs, calcium influx in HemSC treated with Rapamycin or DMSO for six days was analyzed.
To monitor cellular calcium influxes, HemSC treated with Rapamycin (20 ng/ml) or DMSO for six days were labeled with a single wavelength calcium dye, Fluo-4 (1 Molecular Probes), by incubation in 5% CO2 at 37° C. for 20 min. […] Fluorescence intensity at a single wavelength (488 nm excitation) over time was followed using a Nikon Eclipse TE-2000-E Fluorescence microscope equipped with a 1000 W High Pressure Mercury Burner (Olympus Optical Company). Alterations in intracellular calcium were quantified by measuring changes in fluorescence intensity in a region of interest drawn over the entire cell including the nucleus. Background fluorescence was subtracted from fluorescence values at each time point. Results are presented as F/Fo, where F is the average fluorescence intensity in the region of interest (ROI) at each time point during time lapse imaging, and Fo is the fluorescence intensity in the ROI at time=0. […]

[3] = test system: normal human dermal fibroblasts (NHDF); experiment: NHDF proliferation dose-response; format: cell-based; conditions: FIG. 1A
Description: (§3) FIG. 1A depicts dose-response curves of HemSCs (squares), NHDF (triangles), and BM-MSCs (circles) treated with Rapamycin. Error bars denote standard deviation (SD) (n=32). FIG. 1B depicts a graph of the quantification of PCNA-positive cells in HemSCs treated with Rapamycin. Error bars denote SD (n=8). *P<0.05 compared with the non-treated group. FIG. 1C depicts the results of a Western blot for phospho4EBP-1(565) and total 4EBP-1 in HemSCs serum-starved for 24 hours, pretreated with vehicle alone (“0”) or rapamycin for 20 minutes and then stimulated with media containing serum and growth factors for 30 minutes. FIG. 1D depicts a graph of the bands in FIG. 1C quantified using ImageJ; normalized to β-actin.
(§4) Proliferating cell nuclear antigen (PCNA) served as an additional measure of proliferation (Prelich et al., 1987) (Hall and Levison, 1990).

cbEPCs [4] = experiment: Endothelial proliferation assay; format: cell-based, human; conditions: 20 ng/ml, 48 hours, not rescued by VEGF-A or PLGF-1
Description: FIG. 11A depicts a graph of cell number of cbEPCs treated for 48 hours with Rapamycin or (20 ng/ml) DMSO as a control, in the presence of either VEGF-A (37.5 ng/ml), PLGF-1 (37.5 ng/ml) or the combination. Cell number was quantified by automatic microscopy and software analysis. Bars denote the standard deviation with n=32 for each treatment combination. FIG. 11B depicts a graph of cell number of cbEPCs treated for 48 hours with Everolimus (20 ng/ml), Temsirolimus (200 ng/ml) or DMSO as a control, in the presence of VEGF-A (37.5 ng/ml) or PLGF-1 (37.5 ng/ml). Cell number was quantified by automatic microscopy and software analysis. Bars denote the standard deviation with n=32 for each treatment combination.
To study this effect, Rapamycin was tested on cbEPCs.
cbEPCs at passages 6-10 were plated in 384-well plates at 1000 cells per well. 24 hours later, media was removed and replaced with EBM-2 5% fetal bovine serum media containing the recombinant human proteins VEGF-A at 37.5 ng/ml (R&D Systems) or PlGF-1 at 37.5 ng/ml (R&D Systems), and the drug compounds Rapamycin (20 ng/ml), Everolimus 20 ng/ml or Temsirolimus 200 ng/ml in replicates of 32. 48 hours later, cells were fixed and stained with Hoechst (Invitrogen). Following image capture by automated fluorescence microscopy, cell number was determined using MetaXpress Software.

HemSCs in Matrigel = experiment: One cell model of IH (HemSC implanted alone); format: in vivo, nude mice; conditions: i.p. on days 1-6, explanted day 7
Description: as §1, §2

[5] = test system: human ECs, including HemECs; experiment: PLGF-1 expression in endothelial cells (ELISA, RT-PCR); format: cell-based; conditions: 48 hours of incubation
Description: FIG. 11C depicts a graph of quantitative ELISA analysis of PLGF-1 protein secreted from HemECs and Human Dermal Microvascular Endothelial Cells (HDMECs) following 48 hours of incubation with Rapamycin. FIG. 11D depicts a graph of the dose-response of Rapamycin on PLGF-1 mRNA expression in HemECs. Quantitative RT-PCR analyses of HemECs PLGF-1 expression following 48 hours of incubation with Rapamycin at the indicated concentration. FIG. 11E depicts a graph of the dose-response of Rapamycin on PLGF-1 protein secretion from HemECs. PLGF-1 was measured by quantitative ELISA analysis following 48 hours of incubation with Rapamycin at the indicated concentration.
(§6) An enzyme-linked immunoassay (ELISA) was performed using Quantikine Human VEGF and PLGF (R&D Systems). […]

HemSCs [6] = experiment: Two cell model of IH with HemSCs pre-treated in vitro; format: in vivo, nude mice
Excerpt: To test whether or not HemSCs are a target of Rapamycin, versus the cbEPCs or a murine host cell, HemSCs were pre-treated with Rapamycin for three days in vitro, the drug was washing out, and the Rapamycin-treated or control HemSCs were resuspended with cbEPCs in Matrigel, and injected into mice.
(§5) To do this, the anti-proliferative drug Roscovitine, a purine analogue andcyclin-dependent kinase inhibitor (De Azevedo et al., 1997) (Meijer et al., 1997) was used. First, the effect of Roscovitine on HemSCs proliferation was titrated in vitro. […] Next, HemSCs were pre-treated in vitro for three days with either Roscovitine or Rapamycin, the drugs washed out, and the cells then injected with untreated cbEPC into mice.
as §2

HemSCs [7] = experiment: SMC/pericyte marker expression in HemSCs (qPCR, Western blot); format: cell-based, human
HemSCs [8] = experiment: Viability / cell morphology by phalloidin staining; format: cell-based, human
cbEPCs [9] = experiment: Two cell model of IH with cbEPCs pre-treated in vitro; format: in vivo, nude mice
HemSCs [10] = experiment: HemSC proliferation dose-response; format: cell-based, human
Description: as §3, §4, §5

HemSCs [11] = experiment: Pro-angiogenic cytokine expression (antibody array, ELISA, qPCR); format: cell-based, human
Description: To investigate whether corticosteroids and Rapamycin share common mechanisms for suppressing HemSCs-mediated vascularization, the effect of Rapamycin on expression of a panel of 43 pro-angiogenic proteins was evaluated.
Angiogenic Cytokine Antibody Array. Conditioned media from HemSCs and HemECs, treated or untreated with dexamethasone or Rapamycin, were analyzed for protein expression using RayBio® Human Angiogenesis Antibody Array C Series 1000 (RayBiotech); according to the manufacturer's instructions. Blots were analyzed by with image J software (NIH).
as §6

HemSCs [12] = experiment: Endothelial differentiation of HemSCs; format: cell-based, human; conditions: in vitro
Description: (§7) Whether the multi-lineage differentiation of HemSCs could be altered by Rapamycin was assayed.
(§8) Differentiation assays towards endothelial cells and adipocytes were done as reported (Khan et al., 2008).

HemSCs [13] = experiment: Adipogenic differentiation of HemSCs; format: cell-based, human; conditions: adipogenic differentiation protocol
Description: as §7, §8

BM-MSCs = experiment: BM-MSC proliferation dose-response; format: cell-based, human; conditions: FIG. 1A
Description: as §3, §4

HemSCs [14] = experiment: Clonogenic assay (self-renewal); format: cell-based, human; conditions: pre-treatment 20 ng/ml 4 days, colonies at 9 days
Description: To test self-renewal capacity of HemSCs, a clonogenic assay was performed (Ingram et al., 2004).
HemSCs were incubated with Rapamycin 20 ng/ml or DMSO, as a control, for 4 days. Following washout of the drug, cells were serially diluted to 8 cells per ml and plated in 384 well plates, 40 μl/well. Medium was replaced every 48 hours. At day 9, cells were fixed and stained with Hoechst. Following image capture by automated fluorescence microscopy, colony formation and the number of cells/colony were determined by quantifying the number of wells with Hoechst-stained nuclei and the number of Hoechst-stained nuclei/well using MetaXpress Software.

HemSCs [15] = experiment: PCNA immunostaining of HemSCs; format: cell-based, human; conditions: 10 ng/ml
Description: as §4
Human-specific CD31 (DakoCytomation) immunostaining was performed as described (MeleroMartin et al., 2007), (Roelofs et al., 2003). PhosphoAKT/VE-cadherin double immunofluorescence was done on cryosections. Slides were fixed with 8% paraformaldehyde, blocked with 1% BSA and incubated with anti-VE-Cadherin (goat, Santa Cruz Biotechnology, Santa Cruz, Calif.) 1:100 for one hour, followed by anti-goat Texas-Red (Vector Labs, Burlingame, Calif.) 1:200. Following an additional blocking step (1% BSA, 0.1% Triton-X), AntipAKT (mouse, Cell Signaling, Danvers, Mass.) 1:100, was applied over night in 4° C. and next, anti-mouse Alexa Fluor 488 (Invitrogen) 1:300 for one hour. PCNA immunostaining was done using anti-PCNA 1:500 (mouse, Santa Cruz Biotechnology, Santa-Cruz, Calif.). For immunostaining of paraffing embedded Matrigel explants, antigen retrieval was done by citrate buffer. Sections were blocked by 5% horse serum and incubated with a secondary anti-mouse horseradish peroxidase (HRP) conjugate at 1:300 (Vector Labs, Burlingame, Calif.). For immunofluorescence, cells were fixed with methanol, blocked by 1% BSA.

[16] = test system: HemSCs and cbEPCs in Matrigel; experiment: Regression of pre-existing vessels, contrast-enhanced micro-ultrasonic imaging of Matrigel implants; format: in vivo, nude mice; conditions: 2 mg/kg i.p.
Description: To test this, contrast-enhanced micro-ultrasonic imaging was used to measure blood flow in the Matrigel implants. […] For the experiment, mice were injected with cells and imaged at day 7 to record baseline blood flow in the implants. Mice were then randomized into two groups: Rapamycin, 2 mg/kg by i.p. injection or vehicle alone by i.p. injection. At day 17, follow-up imaging was performed.
Contrast-enhanced high resolution ultrasonic (US) imaging of the blood flow in Matrigel implants was performed using a Vevo 770 System with a 40-MHz RMV scanhead (Visual Sonics) (Loveless et al., 2009; Olive et al., 2009). MicroMarker non-targeting contrast agent (Visualsonics) was prepared according to manufacturer's guidelines. For imaging, mice were anesthetized with 2% isofluorane, coupling gel was applied to cover the entire region of interest, and 2-D B-mode scout images established the central slice of the Matrigel. The transducer was placed such that the 6 mm focal spot converged at the center of the Matrigel. Baseline images were acquired in Contrast Mode, and a 50 μL bolus of contrast agent suspension was administered via tail vein catheter during acquisition of a second contrast video.

mTOR = experiment: Western blot of phosphorylated 4EBP1 in HemSCs; format: cell-based, human; conditions: HemSCs serum-starved 24 hours, pretreated 20 minutes
Description: as §3

In the case of CO[C@H]1C[C@@H]2CC[C@@H](C)[C@@](O)(O2)C(=O)C(=O)N2CCCC[C@H]2C(=O)O[C@H]([C@H](C)C[C@@H]2CC[C@@H](OCCO)[C@H](OC)C2)CC(=O)[C@H](C)/C=C(\C)[C@@H](O)[C@@H](OC)C(=O)[C@H](C)C[C@H](C)/C=C/C=C/C=C/1C [everolimus], the “vascularization of Matrigel implants / formation of blood vessels (MVD)” value [1] was “significantly inhibited”.
In the case of C[C@@H]1C[C@H]2[C@@H]3CCC4=CC(=O)C=C[C@]4(C)[C@@]3(F)[C@@H](O)C[C@]2(C)[C@@]1(O)C(=O)CO [Dexamethasone, dexamethasone], the “VEGF-A, IL-6, MMP-1, MCP-1 and UPAR expression” value (HemSCs [2]) is given as “suppressed”.
For CO[C@H]1C[C@@H]2CC[C@@H](C)[C@@](O)(O2)C(=O)C(=O)N2CCCC[C@H]2C(=O)O[C@H]([C@H](C)C[C@@H]2CC[C@@H](OC(=O)C(C)(CO)CO)[C@H](OC)C2)CC(=O)[C@H](C)/C=C(\C)[C@@H](O)[C@@H](OC)C(=O)[C@H](C)C[C@H](C)/C=C/C=C/C=C/1C [temsirolimus], the “vascularization of Matrigel implants / formation of blood vessels (MVD)” value [1] was “significantly inhibited”.
With COC(=O)C1=C(C)NC(C)=C(C(=O)OC)C1c1ccccc1[N+](=O)[O-] [Nifedipine, nifedipine] the “spontaneous Ca2+ oscillations” value (HemSC; 10 uM, Rapamycin-treated HemSC) was “cessation of oscillations”.
In the case of CO[C@H]1C[C@@H]2CC[C@@H](C)[C@@](O)(O2)C(=O)C(=O)N2CCCC[C@H]2C(=O)O[C@H]([C@H](C)C[C@@H]2CC[C@@H](O)[C@H](OC)C2)CC(=O)[C@H](C)/C=C(\C)[C@@H](O)[C@@H](OC)C(=O)[C@H](C)C[C@H](C)/C=C/C=C/C=C/1C [Rapamycin, rapamycin], the “sensitivity of NHDF proliferation compared with HemSCs” value [3] was “less sensitive”, the “growth of cbEPCs” value (cbEPCs [4]) was “suppressed growth” and the “vessel formation, HemSC implanted alone” value (HemSCs in Matrigel) was “inhibited vessel formation”. The “endogenous PLGF-1” value [5] was “dose-dependent suppression”, the “inhibition of microvessel density” value (HemSCs [6]; HemSCs pre-treated in vitro three days, washed out, injected with untreated cbEPC (Roscovitine comparison experiment)) was 60% and the “inhibition of blood vessel formation” value (HemSCs [6]; HemSCs pre-treated three days in vitro, drug washed out, injected with cbEPCs) was 80%. The “expression levels of calponin, NG2 and PDGF-Rβ” value (HemSCs [7]; FIG. 10A) was “unchanged”, the “SM22-alpha and αSMA at the protein level” value (HemSCs [7]; incubation four days) was “increased” and the “smMHC and SM22-alpha transcript levels” value (HemSCs [7]; incubation four days) was “upregulation”. For the same molecule, the “viability (normal cell morphology, phalloidin staining)” value (HemSCs [8]) was “not affected”, the “blood vessel formation after pre-treatment of cbEPCs” value (cbEPCs [9]) was “no effect” and the “inhibition of HemSCs proliferation” value (HemSCs [10]; concentrations of 1 ng/ml and higher) was roughly 40%. For the same molecule, the “expression of VEGF-A by HemSCs at the mRNA or protein level” value (HemSCs [11]) was “did not block”, the “angiogenin and PLGF-1 expression” value (HemSCs [11]; in HemSCs and cbEPCs) was “downregulated” and the “ability of HemSCs to differentiate towards an endothelial phenotype” value (HemSCs [12]) was “No effect”. The “expression of adipogenic markers LPL, C/EBP-α and accumulation of lipid droplets” value (HemSCs [13]) was “blocked expression”, the “sensitivity of BM-MSCs proliferation compared with HemSCs” value (BM-MSCs) was “less sensitive” and the “appearance of colonies with >500 cells” value (HemSCs [14]) was “abolished”. The “decrease in the number of HemSC colonies formed” value (HemSCs [14]) was 60%, the “suppression of percentage of PCNA-positive HemSCs” value (HemSCs [15]) was 80% and the “functional features of SMCs (calcium influx)” value (HemSC; HemSC treated 20 ng/ml six days) was “express L-type voltage gated channels”. The “vascularization of Matrigel implants macroscopically and by histological analysis” value [16] was “less vascularized”, the “blood flow in the implant (contrast intensity)” value ([16]; day 7 to day 17) was “reduced blood flow” and the “constitutive and serum/growth factor stimulated levels of phosphorylated 4EBP1” value (mTOR) was “dose-dependent decrease”. The “de novo formation of human CD31-positive blood vessels” value ([1]; anti-human CD31 staining) was “inhibited the de novo formation” and the “vascularization of Matrigel implants / formation of blood vessels (MVD)” value [1] was “dose-dependent inhibition”.
In the case of CC[C@H](CO)Nc1nc(NCc2ccccc2)c2ncn(C(C)C)c2n1 [Roscovitine], the “inhibition of microvessel density (in words)” value (HemSCs [6]; HemSCs pre-treated in vitro three days, washed out, injected with untreated cbEPC) was “did not” and the inhibition at 3.125 µM (HemSCs [10]; Homo sapiens, read-out: inhibition of HemSCs proliferation) was 55%.
